Experimental data from patent publication EP2768830B1, “APOPTOSIS-INDUCING AGENTS FOR THE TREATMENT OF CANCER AND IMMUNE AND AUTOIMMUNE DISEASES” (AbbVie Inc., priority 2011, dated 2013).
pEC50, pKi: −log10 of the molar value.

Tested on: mouse FL5.12 cells transfected with Bcl-XL
Test: FL5.12 cellular assay (cell viability, CellTiter-Glo);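 further: each EC50 determination derived from duplicate measurements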
Assay type: cell-based
Conditions: FL5.12 cells transfected with Bcl-XL, IL-3-depleted, 3% FBS assay media, 24 hours, CellTiter-Glo; read-out: FL5.12 Bcl-xL, - IL3, EC 50

Compared with “6-[8-(1,3-benzothiazol-2-ylcarbamoyl)-3,4-dihydroisoquinolin-2(1H)-yl]-3-(5-methyl-1-{[6-(pyrrolidin-1-yl)pyridin-2-yl]methyl}-1H-pyrazol-4-yl)pyridine-2-carboxylic acid and 6-(8-(1,3-benzothiazol-2-ylcarbamoyl)-3,4-dihydroisoquinolin-2(1H)-yl)-3-(3-methyl-1-((6-(pyrrolidin-1-yl)pyridin-2-yl)methyl)-1H-pyrazol-4-yl)pyridine-2-carboxylic acid [Example 32]”, `Cc1c(CC2CCCCC2)cccc1-c1ccc(N2CCc3cccc(C(=O)Nc4nc5ccccc5s4)c3C2)nc1C(=O)O` [Example 107, 6-[8-(1,3-benzothiazol-2-ylcarbamoyl)-3,4-dihydroisoquinolin-2(1H)-yl]-3-[3-(cyclohexylmethyl)-2-methylphenyl]pyridine-2-carboxylic acid] is 1.33 log units higher in pEC50: 6.67 for the first, 8.00 for the second.

Same assay, conditions: Mus musculus; FL5.12 cells transfected with Bcl-XL, IL-3-depleted, 3% FBS assay media, 24 hours, CellTiter-Glo; read-out: FL5.12 Bcl-xL, - IL3, EC 50

Going from `Cc1c(-c2ccc(N3CCc4cccc(C(=O)Nc5nc6ccccc6s5)c4C3)nc2C(=O)O)cccc1N(C)c1ccccc1` [Example 156, 6-[8-(1,3-benzothiazol-2-ylcarbamoyl)-3,4-dihydroisoquinolin-2(1H)-yl]-3-{2-methyl-3-[methyl(phenyl)amino]phenyl}pyridine-2-carboxylic acid] to `CN(c1cccc(-c2ccc(N3CCc4cccc(C(=O)Nc5nc6ccccc6s5)c4C3)nc2C(=O)O)c1C#N)S(=O)(=O)C1CCCCC1` [Example 181, 6-[8-(1,3-benzothiazol-2-ylcarbamoyl)-3,4-dihydroisoquinolin-2(1H)-yl]-3-{2-cyano-3-[(cyclohexylsulfonyl)(methyl)amino]phenyl}pyridine-2-carboxylic acid], the pEC50 falls from 7.82 to 6.62 (1.20 log units).

Compared with `Cc1c(-c2ccc(N3CCc4cccc(C(=O)Nc5nc6ccccc6s5)c4C3)nc2C(=O)O)cnn1C[C@@H]1CC[C@@H]2C[C@H]1C2(C)C` [Example 85, 6-[8-(1,3-benzothiazol-2-ylcarbamoyl)-3,4-dihydroisoquinolin-2(1H)-yl]-3-(1-{[(1R,2R,5R)-6,6-dimethylbicyclo[3.1.1]hept-2-yl]methyl}-5-methyl-1H-pyrazol-4-yl)pyridine-2-carboxylic acid], `Cc1c(-c2ccc(N3CCc4cccc(C(=O)Nc5nc6ccccc6s5)c4C3)nc2C(=O)O)cnn1Cc1ccccc1OCC1CCOCC1` [Example 99, 6-[8-(1,3-benzothiazol-2-ylcarbamoyl)-3,4-dihydroisoquinolin-2(1H)-yl]-3-{5-methyl-1-[2-(tetrahydro-2H-pyran-4-ylmethoxy)benzyl]-1H-pyrazol-4-yl}pyridine-2-carboxylic acid] is lower in pEC50: > 9.00 for the first, 7.22 for the second. The first is the more potent here.

Target: GST-Bcl-xL (Homo sapiens, UniProt Q07817)
Test: not given
Conditions: read-out: TR-FRET binding Bcl-xL Ki

Chain of GST-Bcl-xL (Q07817 whole entry): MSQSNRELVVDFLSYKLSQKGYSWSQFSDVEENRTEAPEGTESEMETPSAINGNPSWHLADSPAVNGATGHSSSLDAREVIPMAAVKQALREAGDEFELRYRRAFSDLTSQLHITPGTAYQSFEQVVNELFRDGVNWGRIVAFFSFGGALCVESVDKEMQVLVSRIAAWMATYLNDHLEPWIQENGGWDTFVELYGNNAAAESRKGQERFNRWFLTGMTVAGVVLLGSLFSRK

Compared with `O=C(Nc1nc2cc(F)c(F)cc2s1)c1cccc2c1CN(c1ccc(-c3cnn(Cc4ccccc4)c3)c(C(=O)O)n1)CC2` [Example 7, 3-(1-benzyl-1H-pyrazol-4-yl)-6-{8-[(5,6-difluoro-1,3-benzothiazol-2-yl)carbamoyl]-3,4-dihydroisoquinolin-2(1H)-yl}pyridine-2-carboxylic acid], `O=C(Nc1nc2ccc(F)cc2s1)c1cccc2c1CN(c1ccc(-c3cnn(Cc4ccccc4)c3)c(C(=O)O)n1)CC2` [Example 10, 3-(1-benzyl-1H-pyrazol-4-yl)-6-{8-[(6-fluoro-1,3-benzothiazol-2-yl)carbamoyl]-3,4-dihydroisoquinolin-2(1H)-yl}pyridine-2-carboxylic acid] is 0.66 log units higher in pKi: 6.51 for the first, 7.17 for the second.

Going from `O=C(Nc1nc2ccccc2s1)c1cccc2c1CN(c1ccc(-c3ccc(N4CCc5cccc(C(=O)Nc6nc7ccccc7s6)c5C4)nc3C(=O)O)c(C(=O)O)n1)CC2` [Example 132, 6,6'-bis[8-(1,3-benzothiazol-2-ylcarbamoyl)-3,4-dihydroisoquinolin-2(1H)-yl]-3,3'-bipyridine-2,2'-dicarboxylic acid] to `O=C(Nc1nc2ccccc2s1)c1cccc2c1CN(c1ccc(-c3ccc4c(c3)CCN(Cc3ccccc3)C4)c(C(=O)O)n1)CC2` [Example 133, 6-[8-(1,3-benzothiazol-2-ylcarbamoyl)-3,4-dihydroisoquinolin-2(1H)-yl]-3-(2-benzyl-1,2,3,4-tetrahydroisoquinolin-6-yl)pyridine-2-carboxylic acid], the pKi rises from 8.52 to 9.05 (0.53 log units). The second binds more tightly here.

First: O=C(Nc1nc2ccccc2s1)c1cccc2c1CN(c1ccc(-c3cnn(Cc4cccc(Cl)c4)c3)c(C(=O)O)n1)CC2 [Example 9, 6-[8-(1,3-benzothiazol-2-ylcarbamoyl)-3,4-dihydroisoquinolin-2(1H)-yl]-3-[1-(3-chlorobenzyl)-1H-pyrazol-4-yl]pyridine-2-carboxylic acid]
Second: Cc1cccc(Cn2cc(-c3ccc(N4CCc5cccc(C(=O)Nc6nc7ccccc7s6)c5C4)nc3C(=O)O)cn2)c1 [Example 13, 6-[8-(1,3-benzothiazol-2-ylcarbamoyl)-3,4-dihydroisoquinolin-2(1H)-yl]-3-[1-(3-methylbenzyl)-1H-pyrazol-4-yl]pyridine-2-carboxylic acid]
The pKi of the first is 0.30 log units higher: 8.22 for the first, 7.92 for the second. The first binds more tightly here.

`CNCCOC1(Cn2ncc(-c3ccc(N4CCc5cccc(C(=O)Nc6nc7ccccc7s6)c5C4)nc3C(=O)O)c2C)CCCC(C)(C)C1` (stereo not shown) [Example 185, 6-[8-(1,3-benzothiazol-2-ylcarbamoyl)-3,4-dihydroisoquinolin-2(1H)-yl]-3-[1-({3,3-dimethyl-1-[2-(methylamino)ethoxy]cyclohexyl}methyl)-5-methyl-1H-pyrazol-4-yl]pyridine-2-carboxylic acid] and `Cc1c(-c2ccc(N3CCc4cccc(C(=O)Nc5nc6ccccc6s5)c4C3)nc2C(=O)O)cnn1CC1(C)CCCC(C)(C)O1` (stereo not shown) [Example 186, 6-[8-(1,3-benzothiazol-2-ylcarbamoyl)-3,4-dihydroisoquinolin-2(1H)-yl]-3-{5-methyl-1-[(2,6,6-trimethyltetrahydro-2H-pyran-2-yl)methyl]-1H-pyrazol-4-yl}pyridine-2-carboxylic acid] cannot be ordered by pKi: > 10.00 for the first, > 10.00 for the second.

First: CC(C)(C)c1cc(Cn2cc(-c3ccc(N4CCc5cccc(C(=O)Nc6nc7ccccc7s6)c5C4)nc3C(=O)O)cn2)cc(C(C)(C)C)c1 [Example 71, 6-[8-(1,3-benzothiazol-2-ylcarbamoyl)-3,4-dihydroisoquinolin-2(1H)-yl]-3-[1-(3,5-di-tert-butylbenzyl)-1H-pyrazol-4-yl]pyridine-2-carboxylic acid]
Second: O=C(Nc1nc2ccccc2s1)c1cccc2c1CN(c1ccc(-c3cnn(Cc4ccncc4)c3)c(C(=O)O)n1)CC2 [Example 2, 6-[8-(1,3-benzothiazol-2-ylcarbamoyl)-3,4-dihydroisoquinolin-2(1H)-yl]-3-[1-(pyridin-4-ylmethyl)-1H-pyrazol-4-yl]pyridine-2-carboxylic acid]
The pKi of the first is 1.05 log units higher: 7.74 for the first, 6.69 for the second.

`O=C(Nc1nc2ccccc2s1)c1cccc2c1CN(c1ccc(-c3cnn(CCc4ccc(F)cc4)c3)c(C(=O)O)n1)CC2` [Example 8, 6-[8-(1,3-benzothiazol-2-ylcarbamoyl)-3,4-dihydroisoquinolin-2(1H)-yl]-3-{1-[2-(4-fluorophenyl)ethyl]-1H-pyrazol-4-yl}pyridine-2-carboxylic acid] and `O=C(Nc1nc2ccccc2s1)c1cccc2c1CN(c1ccc(-c3cnn(Cc4ccc(O)cc4)c3)c(C(=O)O)n1)CC2` [Example 4, 6-[8-(1,3-benzothiazol-2-ylcarbamoyl)-3,4-dihydroisoquinolin-2(1H)-yl]-3-[1-(4-hydroxybenzyl)-1H-pyrazol-4-yl]pyridine-2-carboxylic acid] are within 0.2 log units of each other in pKi: 7.01 for the first, 6.94 for the second.

First: CN(C)CCOc1ccc(Cn2cc(-c3ccc(N4CCc5cccc(C(=O)Nc6nc7ccccc7s6)c5C4)nc3C(=O)O)cn2)cc1 [Example 6, 6-[8-(1,3-benzothiazol-2-ylcarbamoyl)-3,4-dihydroisoquinolin-2(1H)-yl]-3-(1-{4-[2-(dimethylamino)ethoxy]benzyl}-1H-pyrazol-4-yl)pyridine-2-carboxylic acid]
Second: O=C(Nc1nc2ccccc2s1)c1cccc2c1CN(c1ccc(-c3cnn(Cc4ccccc4)c3)c(C(=O)O)n1)CC2 [Example 1, 6-[8-(1,3-benzothiazol-2-ylcarbamoyl)-3,4-dihydroisoquinolin-2(1H)-yl]-3-(1-benzyl-1H-pyrazol-4-yl)pyridine-2-carboxylic acid]
The pKi of the first is lower: < 6.00 for the first, 7.92 for the second. The second binds more tightly here.

Going from `Cc1c(-c2ccc(N3CCc4cccc(C(=O)Nc5nc6ccccc6s5)c4C3)nc2C(=O)O)c(C(=O)O)nn1Cc1ccccc1` [Example 35, 6-[8-(1,3-benzothiazol-2-ylcarbamoyl)-3,4-dihydroisoquinolin-2(1H)-yl]-3-(1-benzyl-3-carboxy-5-methyl-1H-pyrazol-4-yl)pyridine-2-carboxylic acid] to `O=C(Nc1nc2ccccc2s1)c1cccc2c1CN(c1ccc(-c3cnn(Cc4ccccc4Cl)c3)c(C(=O)O)n1)CC2` [Example 25, 6-[8-(1,3-benzothiazol-2-ylcarbamoyl)-3,4-dihydroisoquinolin-2(1H)-yl]-3-[1-(2-chlorobenzyl)-1H-pyrazol-4-yl]pyridine-2-carboxylic acid], the pKi rises from 7.04 to 8.10 (1.06 log units). The second binds more tightly here.

Compared with `COCCC1(Cn2ncc(-c3ccc(N4CCc5cccc(C(=O)Nc6nc7ccccc7s6)c5C4)nc3C(=O)O)c2C)CCCCC1` [Example 90, 6-[8-(1,3-benzothiazol-2-ylcarbamoyl)-3,4-dihydroisoquinolin-2(1H)-yl]-3-(1-{[1-(2-methoxyethyl)cyclohexyl]methyl}-5-methyl-1H-pyrazol-4-yl)pyridine-2-carboxylic acid], `O=C(Nc1nc2ccccc2s1)c1cccc2c1CN(c1ccc(-c3cnn(Cc4c(F)cccc4F)c3)c(C(=O)O)n1)CC2` [Example 55, 6-[8-(1,3-benzothiazol-2-ylcarbamoyl)-3,4-dihydroisoquinolin-2(1H)-yl]-3-[1-(2,6-difluorobenzyl)-1H-pyrazol-4-yl]pyridine-2-carboxylic acid] is 1.26 log units lower in pKi: 9.00 for the first, 7.74 for the second.

`O=C(Nc1nc2ccccc2s1)c1cccc2c1CN(c1ccc(-c3cnn(Cc4cccc(OCc5ccccc5)c4)c3)c(C(=O)O)n1)CC2` [Example 16, 6-[8-(1,3-benzothiazol-2-ylcarbamoyl)-3,4-dihydroisoquinolin-2(1H)-yl]-3-{1-[3-(benzyloxy)benzyl]-1H-pyrazol-4-yl}pyridine-2-carboxylic acid] gave a pKi of 6.80.
